Consider 1 compound from US20050202093A1, “Prolonged suppression of electrical activity in excitable tissues” (priority 2002, published 2005).

One data set concerns pilocarpine-treated rats. The experiment in a line: Focal pilocarpine-induced seizures after intrahippocampal pretreatment, behavior scored 0-6. The format is in vivo, Sprague Dawley rats. The method, then:
The method is similar to that described by Cavalheiro et al. (Cavalheiro E A, Czuzwar S J, Kleinrok S. Intracerebral cholinomimetics produce seizure-related brain damage in rats. Brit. J. Pharmacol. 1983; 79: 284P; incorporated herein by reference). Animals were anesthetized with pentobarbital (40 mg/kg) and an electrode-cannula guide (Plastic one, USA) was stereotactically implanted in the CA3 region of the dorsal hippocampus (lateral from midline 3.5 mm, posterior from bregma 3.8 mm, and 3.8 mm deep from skull; FIG. 35 in (Paxinos G, Watson C. The rat brain in stereotaxic coordinates, 4th edition. San Diego: Academic Press, 1998; incorporated herein by reference)). The electrode-cannula guide was fixed to skull using dental cement and skull screws. After surgery, a dummy cannula was placed into the guide cannula to prevent occlusion. One week later the rats received 30 μl of one anticonvulsant or control treatment (encapsulated or free) through the cannula using a microinfusion pump (Baxter, model AS40A) for 15 min at a rate of 0.12 ml/hr. Thirty minutes after completion of these treatments, 40 mM pilocarpine was infused for 50 min at a rate of 0.12 ml/hr. Subsequently, continuous EEGs were recorded from the electrode-cannulae, and the animals were videotaped for a minimum of two hours. […]

In data set [1] the test system is hippocampus of pilocarpine-treated rats. The experiment in a line: Hippocampal histology two weeks after seizure induction (thionin cell loss score, Timm stain score). Format: in vivo, Sprague Dawley rats. The conditions noted are these: dosage 5 μg. On the procedure:
Two weeks after induction of seizure, animals were sacrificed and prepared for routine histology and Timm histochemistry. Following deep anesthesia with sodium pentobarbital (100 mg/kg), rats were perfused transcardially with 300 ml sodium sulfide medium (2.295 g Na2S, 2.975 g NaH2PO4/H2O in 500 ml H2O) followed by 300 ml 4% paraformaldehyd were postfixed in 4% paraformaldehyde for 24 h and then placed in a 30% sucrose solution until they sank to the bottom of the vial. Coronal sections through the entire extent of the hippocampus were cut at 40 μm on a freezing microtome and sections were stored in phosphate buffered saline. Every fourth section was stained for mossy fibers using Timm stain as follows. The sections were developed in the dark for 40-45 min in a solution of 50% Arabic gum (120 ml), 10 ml of citric acid (51 g/100 ml H2O), 10 ml sodium citrate (47 g/100 ml H2O), 3.47 g hydroquinone in 60ml, and 212.25 mg AgNO3. Following washing, the slides were dehydrated in alcohol, cleared in xylene, and mounted on slides with Permount (Fisher Scientific, Pittsburgh, Pa.). Timm staining was analyzed using a scoring system (0 to 5) for terminal sprouting in the CA3 and supragranular regions (Holmes G L, Gaiarsa J L, Chevassus-Au-Louis N, Ben-Ari Y. Consequences of neonatal seizures in the rat: morphological and behavioral effect. Ann. Neurol. 1998; 44: 845-857; Holmes G L, Sarkisian M, Ben-Ari Y, Chevassus-Au-Louis N. Mossy fiber sprouting following recurrent seizures during early development in rats. J. Comp. Neurol. 1999; 404: 537-553; each of which is incorporated herein by reference). […] Slides were analyzed for cell loss in the CA3, CA1 and hilar region using a semi-quantitative visual scoring system (0 to 5) (Mikati M A, Holmes G L, Chronopoulos A, et al. Phenobarbital modifies seizure-related brain injury in the developing brain. Ann. Neurol. 1994; 36: 425-433; incorporated herein by reference). Cell loss was assessed both ipsilateral and contralateral to the injection site. […]

Regarding `NCc1cc(=O)[nH]o1` [free muscimol, Muscimol], the “seizure activity as measured by behavior score, versus normal saline” value in the data set with pilocarpine-treated rats (5 μg intrahippocampal prior to pilocarpine, 120 minute time course, n=4) is listed as “reduces seizure activity”. The mortality result with pilocarpine-treated rats (unencapsulated comparison groups to the 10 μg and 20 μg particle groups) is recorded as “high mortality”. Also, in data set [1] (n=4, mean ± SD), the “Timm scores CA3 region” value was 1.48 ± 0.63 and the “Timm scores Supragranular” value was determined as 1.75 ± 0.28. Moreover, the Total cell loss in data set [1] (n=4, thionin staining, mean ± SD) is recorded as 6.27 ± 0.57.
